Here are results for 1 compound from paper PMC2758719 (Molecular Systems Biology, 2009).

This experiment deals with T1, PfkA (Escherichia coli, UniProt P0A796).
T1 sequence (P0A796 1-320): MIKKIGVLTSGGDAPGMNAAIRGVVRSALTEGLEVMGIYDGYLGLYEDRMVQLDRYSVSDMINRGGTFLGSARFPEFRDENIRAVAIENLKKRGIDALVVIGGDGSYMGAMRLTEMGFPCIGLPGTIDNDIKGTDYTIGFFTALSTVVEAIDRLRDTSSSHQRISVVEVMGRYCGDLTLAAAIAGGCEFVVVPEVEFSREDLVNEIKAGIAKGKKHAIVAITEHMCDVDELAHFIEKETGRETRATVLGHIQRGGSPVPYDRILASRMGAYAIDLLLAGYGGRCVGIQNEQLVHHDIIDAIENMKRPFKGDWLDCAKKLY
As to the kind of experiment: CE-MS quantification of metabolites after incubation. The following applies: 5 mM S7P, 2 mM ATP, 2 uM enzyme, 50 mM MOPS potassium buffer, 37 °C, 1 h. In kind it is biochemical.

In the case of `O=P(O)(O)OC[C@@H](O)[C@H]1OC(O)(CO)[C@@H](O)[C@@H]1O` (stereo partly shown) [S7P], the “CE-MS quantification of metabolites after incubation” value was “When S7P and ATP were incubated with PfkA, S7P and ATP were consumed”.
